# US20100120867A1, “METHOD OF TREATMENT” (Novartis AG, priority 2007, published 2010)
# Experiment: Multicenter, double-blind, randomized, placebo-controlled clinical study in subjects with frequent heartburn
# Type: in vivo, human
# Method: A multicenter, double-blind, randomized, parallel group, placebo-controlled clinical study is carried out to investigate the safety and efficacy of lansoprazole, 15 mg (or alternatively 30 mg) once daily, in preventing frequent heartburn.
# The trial population consists of subjects (male or female, at least 18 years old) with frequent heartburn, i.e. heartburn occurring a minimum of 2 or more days a week over the past month, that was untreated. A total of 576 subjects with frequent heartburn (288 per group) is randomized in order to yield 546 subjects.
# The study population is divided equally between a treatment group receiving lansoprazole capsules, 15 mg (or alternatively, 30 mg) and a control group receiving placebo capsules. All statistical tests used to compare the two treatment groups are two-sided, with probability of Type I error=0.05.
# Lansoprazole 15 mg (or alternatively, 30 mg) capsules or placebo are taken once daily for 14 days during the double blind treatment period.
# Most measures of efficacy are derived from data recorded in the subject's IVRS diary after a daily self-assessment. Subjects are given instructions to complete the IVRS diary in the morning for the previous 24-hour period on a daily basis for all phases of the study. The diary is designed to collect information on the occurrence of daytime and nighttime heartburn episodes, maximum heartburn severity, and rescue medication consumption for the previous 24 hours. In addition, the date and time of study medication consumption are recorded.
# To classify heartburn severity, subjects are instructed to use the most intense episode of the 24-hour period according to the following Intensity Scale Definitions (Table 6):
# Therefore, the primary evaluation is the period between the first dose (Day 1) through the end of the double blind treatment period, i.e. Days 1-14 for 24-hour days. “No heartburn over 24 hours” on each of Days 1-14 is defined as the combined experience of daytime and nighttime heartburn. […]
# This variable is analyzed as the percentage of nighttimes with the outcome of no nighttime heartburn. […]
# [1] = 14-day course of therapy, randomized treatment group
compound,measurement,setting,value
Cc1c(OCC(F)(F)F)ccnc1C[S+]([O-])c1nc2ccccc2[nH]1 (stereo not drawn) [Lansoprazole],efficacy in the relief of frequent heartburn compared to placebo,"15 mg once daily, 14 days",superior in efficacy to placebo
same,proportion of 24-hour days substantially free of heartburn compared to placebo,[1],statistically significant increase
same,proportion of nighttimes substantially free of heartburn compared to placebo,[1],statistically significant increase
